Laboratory results as given in patent US20250032530A1, “USE OF AURANOFIN AS AN INHIBITOR OF ATYPICAL PROTEIN KINASE C FOR TREATMENT OF NEURODEGENERATIVE DISORDERS” (UNIVERSITY OF SOUTH FLORIDA, priority 2021, published 2025).
Where two headings read alike, the source gives them in different places.

How the values were obtained:
aPKC = conditions: cited from earlier work
Tg APP/PS1 AD mice = assay: Memory tests (Novel Object Recognition, RAWM) in transgenic APP/PS1 AD mice given oral ICAP; type: in vivo, mouse; conditions: PO 100 mg/kg/day × 3 months
Procedure: Radial Arm Water Maze (RAWM) assesses learning and spatial memory and requires hippocampal and frontal cortical areas. The maze consisted of a circular pool filled with opaque water, with 6 arms radiating from a central area. On each training day, mice were released to swim and find a submerged escape platform at the end of a goal arm, utilizing extra-maze cues to form a spatial representation. On each day, there were 4 consecutive acquisition trials of no more than 1 minute each. […] If the animal made an error, it was returned to the start arm in a restart procedure. After the last acquisition trial, the animal was dried and returned to its home cage for 30 min and then given a single retention trial from the same start arm to measure short-term spatial memory.

BACE1 [1] = assay: BACE1 protein and mRNA levels in brain and liver of normal mice given ICAP nasally or IV; type: in vivo, mouse
Procedure: Values are mean±SEM of 6 mice/group. P values, (ANOVA).
Values are mean±SEM of 6 mice/group.
As described, samples from mouse brains that were flash-frozen in liquid N2 and stored at −80° C. were homogenized in buffer containing 0.25M sucrose, 20 mM Tris/HCl (pH, 7.5), 2 mM EGTA, 2 mM EDTA, 1 mM phenyl-methyl-sulfonyl-fluoride, 20 μg/ml leupeptin, 10 μg/ml aprotinin, 2 mM Na4P2O7, 2 mM Na3VO4, 2 mM NaF, and 1 μM microcystin, and then supplemented with 1% TritonX-100, 0.6% Nonidet and 150 mM NaCl.
(§1) As described, western analyses were conducted with rabbit antisera, using: anti-aPKC [recognizes a C-terminal sequence in all aPKCs (Santa Cruz Biotechnologies, Santa Cruz, CA, USA)]; anti-phospho-threonine (thr)-560/555-PKC-ζ/λ/ι [recognizes a phosphopeptide sequence present in all aPKCs and indicates activation (Invitrogen, Carlsbad, CA, USA)]; anti-phospho-serine (ser)-473-Akt [recognizes a phosphopeptide sequence at 60 kDa present in all Akt's-1/2/3 and indicates activation (Cell Signaling Technologies, Danvers, MA, USA)]; anti-4 kDa-AP1-40/42 (Cell Signaling Technologies, Danvers, MA, USA); anti-mouse-70 kDa-BACE1 and anti-human-70 kDa-BACE1 (ThermoFisher); and anti-phospho-threonine (thr)-231-tau (Gene Tex, Irvine, CA, USA). Samples from all experimental groups within each study were compared on the same blots and routinely checked with loading controls. All comparisons in histograms were made relative to the mean value of the basal control group, i.e., wild-type mice consuming standard low-fat mouse chow, untreated with insulin or aPKC inhibitors, and having normal levels of aPKCs and other cellular proteins.

PKC-λ/ι = target: T1, PKC-λ/ι (Mus musculus, UniProt Q62074); conditions: cited from earlier work
T1 sequence (Q62074 1-595): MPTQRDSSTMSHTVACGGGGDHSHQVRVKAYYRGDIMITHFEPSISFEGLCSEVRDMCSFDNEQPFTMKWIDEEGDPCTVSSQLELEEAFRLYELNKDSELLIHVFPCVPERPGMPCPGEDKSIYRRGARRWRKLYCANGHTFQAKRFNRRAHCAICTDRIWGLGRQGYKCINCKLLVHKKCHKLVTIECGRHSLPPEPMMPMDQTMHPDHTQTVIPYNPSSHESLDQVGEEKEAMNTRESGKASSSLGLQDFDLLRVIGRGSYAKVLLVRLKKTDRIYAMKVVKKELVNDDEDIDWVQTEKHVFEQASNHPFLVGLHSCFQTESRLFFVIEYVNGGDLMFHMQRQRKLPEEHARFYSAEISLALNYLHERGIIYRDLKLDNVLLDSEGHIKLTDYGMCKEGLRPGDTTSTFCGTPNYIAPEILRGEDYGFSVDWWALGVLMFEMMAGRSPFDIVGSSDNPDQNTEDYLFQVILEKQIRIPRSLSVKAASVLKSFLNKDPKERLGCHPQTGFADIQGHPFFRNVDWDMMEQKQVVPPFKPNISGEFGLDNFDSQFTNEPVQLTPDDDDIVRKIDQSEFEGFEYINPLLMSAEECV

[2] = test system: aPKC, Akt2, AMP-activated kinase (AMPK), FoxO1; conditions: isolated human hepatocytes; cited from earlier work
[3] = Distribution and passage of the blood brain barrier; type: in vivo; conditions: published and prelim PK/PD studies
Procedure: aPKC Inhibitors. We identified by HTS compounds that target the substrate-binding site of aPKCs and potently (IC50s10-30 nM) inhibit recombinant PIP3-dependent aPKCs, but not DAG-dependent PKCs. Three compounds have been studied in detail: (a) 1H-imidazole-4-carboxamide, 5-amino-1-[2,3-dihydroxy-4-[(phosphono-oxy)methyl]cyclopentyl-[1R-(1a,2b,3b,4a)] […] Thus, these agents can reduce brain aPKC activity, indirectly at lower doses by inhibiting liver aPKC and correcting hyperinsulinemia in insulin-resistant states, and, at higher doses, by acting directly on brain PKC-λ/ι.

70 kDa PKC-λ/ι = target: T2, 70 kDa PKC-λ/ι (Mus musculus, UniProt Q62074); assay: 70 kDa PKC-λ/ι activity (p-thr-555/560-aPKC, Western) in brain and liver of normal mice given ICAP nasally or IV; type: in vivo
T2 construct: from tissue; host or cells: mouse brain and liver
T2 sequence (Q62074 1-595): T1 sequence (Q62074 1-595)

[4] = test system: BACE1 and CKs (TNF-α, IL-1β, IL-6); assay: BACE1 and proinflammatory cytokine levels in APP/PS1 AD mice given oral ICAP; type: in vivo, mouse
Text: Values are Mean±SEM of results in 10 mice.
As alluded to, resting PKC-λ/ι activity was increased by approx. 40% in brains of Tg APP/PS1 AD mice, relative to normal WT mice (FIG. 17).

[5] = test system: Aβ-peptides and Aβ-plaque; assay: AD pathology (Aβ-peptides by ELISA, Aβ-plaque load) in transgenic APP/PS1 AD mice given ICAP; type: in vivo, mouse
50 kDa PKMζ = target: T3, 50 kDa PKMζ (Mus musculus, UniProt Q02956); assay: 50 kDa PKMζ activity in brain of normal mice given nasal ICAP; type: in vivo; conditions: 100 mg/kg/day, 3 weeks
T3 construct: from tissue; host or cells: mouse brain
T3 sequence (Q02956 1-409 isoform Q02956-2): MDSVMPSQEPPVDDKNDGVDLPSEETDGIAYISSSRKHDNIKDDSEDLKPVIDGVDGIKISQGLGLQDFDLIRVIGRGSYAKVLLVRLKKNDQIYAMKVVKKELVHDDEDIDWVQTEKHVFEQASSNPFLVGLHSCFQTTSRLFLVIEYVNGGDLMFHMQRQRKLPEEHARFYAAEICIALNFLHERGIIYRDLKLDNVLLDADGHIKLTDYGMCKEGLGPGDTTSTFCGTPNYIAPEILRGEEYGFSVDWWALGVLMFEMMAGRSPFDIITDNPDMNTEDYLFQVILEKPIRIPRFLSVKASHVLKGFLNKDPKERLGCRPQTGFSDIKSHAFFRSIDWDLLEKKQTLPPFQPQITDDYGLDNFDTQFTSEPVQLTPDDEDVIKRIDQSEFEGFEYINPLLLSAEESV

[6] = IV and PO, 200 mg/kg body weight; cited from earlier work
[7] = PO; cited from earlier work
PKCι and PKCζ = conditions: cited from earlier work
CA-125 = conditions: oral administration, 10 patients; cited from earlier work
[8] = test system: non-sensitive cancer cells; conditions: read-out: cytotoxicity activity (IC50); cited from earlier work
BACE1 [9] = assay: BACE1 levels in LA1-5s neuronal cells treated with insulin; type: cell-based, human; conditions: 200 nM insulin, 24 hours; increasing concentrations of ICAPP
Procedure: Values of BACE1 are Mean±SEM of 4 values. Asterisks indicate P<0.05 for comparison of designated group versus the untreated control group (ANOVA).
(§2) LA1-5s neuronal cells were originally obtained from non-catecholamine-producing neuroblastoma of a person and are commercially available from the European Collection of Authenticated Cell Cultures. Incubation conditions were as described.
as §1

NFκB = assay: Insulin-induced NFκB activity in LA1-5s neuronal cells; type: cell-based, human; conditions: 200 nM insulin, 24 hours; 1 μM ACPD, increasing concentrations of auranofin
Text: (§3) Cell lysates were subjected to Western analyses for phosphorylated/activated forms of aPKC, NFκB and Akt. Representative blots of indicated proteins are shown in upper bands. […] Bargrams show Mean±SEM of 3-4 determinations. Asterisks indicate P<0.05; comparison of designated group versus the uninhibited, insulin-treated group (ANOVA).
as §2
as §1, with “Samples from all experimental groups within each study were compared on the same blots and routinely checked with loading controls. All comparisons in histograms were made relative to the mean value of the basal control group, i.e., wild-type mice consuming standard low-fat mouse chow, untreated with insulin or aPKC inhibitors, and having normal levels of aPKCs and other cellular proteins.” left out

sensitive cancer cells = conditions: read-out: cytotoxicity activity (IC50); cited from earlier work
Akt = assay: Insulin-induced Akt activation in LA1-5s neuronal cells; type: cell-based, human; conditions: 200 nM insulin, 24 hours
Text: as §3, §2
as §1, with “Samples from all experimental groups within each study were compared on the same blots and routinely checked with loading controls. All comparisons in histograms were made relative to the mean value of the basal control group, i.e., wild-type mice consuming standard low-fat mouse chow, untreated with insulin or aPKC inhibitors, and having normal levels of aPKCs and other cellular proteins.” left out

[10] = nasal, 100 mg/kg/day, 3 weeks, brain
[11] = PO 100 mg/kg/day × 3 months, brain
[12] = mouse, in vivo, po, 100 mg/kg/day

For `NC(=O)c1ncn(C2CC(CO)C(O)C2O)c1N` (centres unmarked) [ICAP], the “inhibition of brain aPKC” value (aPKC; at higher doses) is listed as “inhibit brain aPKC”, the effectiveness in brain (aPKC; given per os (PO), nasally, SC) is listed as “effective in brain” and the “aPKC inhibition in liver, muscle, adipose tissue” value (aPKC; intact mice, employed doses) is listed as “inhibit aPKC in liver, but not in muscle or adipose tissue”. The “memory function, Novel Object Recognition (NOR) test” value (Tg APP/PS1 AD mice) was “restored memory functions”, the “memory function, RAWM test” value (Tg APP/PS1 AD mice; not shown) was “restored memory functions” and the “decrease of brain BACE1 levels” value (BACE1 [1]; IV, 100 mg/kg/day × 7 days, brain) was 50-60%. The “decrease of liver BACE1 levels” value (BACE1 [1]; IV, 100 mg/kg/day × 7 days, liver) was “approximately 90%”, the “decrease of brain BACE1 mRNA levels” value (BACE1 [1]; [10]) was “approximately 50%” and the “decrease of brain BACE1 protein levels” value (BACE1 [1]; [10]) was “approximately 50%”. For the same compound, the “effect on LTP and LTM” value (PKC-λ/ι) was “lack of effect”, the FoxO1 phosphorylation/inactivation [2] was “increase FoxO1 phosphorylation/inactivation” and the “inhibition of aPKC, Akt2, AMPK” value [2] was “inhibit aPKC but not Akt2 or AMP-activated kinase (AMPK)”. The “passage of the BBB” value [3] was “clearly passes the BBB and enters the brain”, the tissue distribution [3] was “preferentially distributes to liver” and the “decrease of brain PKC-λ/ι (aPKC) activity” value (70 kDa PKC-λ/ι; IV, 100 mg/kg/day × 7 days, normal mice, brain) was 50-60%. For the same compound, the “inhibition of PKC-λ versus PKMζ” value (70 kDa PKC-λ/ι; mouse brain) was “inhibits PKC-λ, but not PKMζ”, the “inhibition of brain 70 kDa PKC-λ/ι (aPKC) activity” value (70 kDa PKC-λ/ι; nasal, 100 mg/kg/day, 3 weeks, normal mice, brain) was 70-80% and the “liver BACE1 levels” value ([4]; PO 100 mg/kg-bw daily, liver) was “diminished”. For the same compound, the “brain levels of BACE1” value [4, 11] was “diminished”, the “brain levels of CKs (TNF-α, IL-1β, IL-6)” value [4, 11] was “diminished” and the “reduction of Aβ-plaque load” value ([5]; PO 100 mg/kg/day × 3 months, APP/PS1 AD mice) was “approx. 70%”. For the same compound, the Aβ40 levels [5, 12] was “reduced”, the Aβ42 levels [5, 12] was “reduced” and the “AD pathological and functional aberrations” value ([5]; nasal ICAP, APP/PS1 AD mice, not shown) was “corrected AD pathological and functional aberrations”. The “brain 50 kDa PKMζ activity” value (50 kDa PKMζ) was “not altered” and the “ICAP uptake over 24 hours, liver versus brain” value [6] was “substantially greater in liver than in brain”.
For `CC(=O)OC[C@H]1O[C@@H]([S-])[C@H](OC(C)=O)[C@@H](OC(C)=O)[C@@H]1OC(C)=O.CCP(CC)CC.[Au+]` [auranofin, 1-thio-β-D-glucopyranosatotriethylphosphine gold-2,3,4,6-tetraacetate], the “passage of the BBB” value [7] is given as “known to cross the BBB”, the “inhibition of PKCι and PKCζ signaling by targeting the PB1 domain” value (PKCι and PKCζ) is given as “inhibits PKCι and PKCζ signaling” and the “insulin activation of aPKC (PB1 site)” value (PKCι and PKCζ) is given as “inhibit insulin activation of aPKC”. The “levels of CA-125” value (CA-125) was “decreased levels of CA-125 in one patient”, the IC50 [8] was over 40 µM and the “insulin-induced increase in BACE1 levels” value (BACE1 [9]) was “diminished”. For the same compound, the “insulin-induced increase in NFκB activity” value (NFκB) was “diminished”, the IC50 (sensitive cancer cells) was at most 10 µM and the “insulin-induced Akt activation” value (Akt) was “not Akt activation”.
